A melting point compilation (Tetko et al.; mined from patent text by program, amines drawn as free bases though some values may be those of a salt)

melting point [°C] | Structure (SMILES)
104 to 106 | C=CC[C@@H]1CCC(=O)C[C@H]1c1ccc(OCc2ccccc2)cc1OCc1ccccc1 (relative stereo)
> 350 | COc1cccc2[nH]c(=O)n3c(=O)[nH]nc3c12
236 to 237 | COc1ccc(N2CCOCC2)cc1NC(=S)c1nc2ccccc2[nH]1
163 | COC(=O)c1[nH]nc2c1C(C)Cc1cc(OC)ccc1-2 (stereo not given)
119 to 120 | CCN(CC)CCOCCC1CCN(C(=O)N2c3ccccc3C(=O)Nc3cccnc32)CC1
281 | NS(=O)(=O)c1ccc(-c2cn(-c3nc(-c4ccc(C(F)(F)F)cc4)cc(C(F)(F)F)n3)cn2)s1
152 to 153 | CCOC(=O)C(=O)CC(=O)c1cn(Cc2ccc(F)cc2)c2ccc(F)cc2c1=O
99.5 to 100 | CNC(=S)NCCSCc1cnccn1
122 to 125 | Cn1nc(CCc2cc(=O)[nH]c(N)n2)c2ccc(C(=O)NC[C@H](NS(=O)(=O)c3cccc4cnccc34)C(=O)O)cc21
136 to 137 | COC(=O)CCCc1nnc(-c2nccs2)c2cc(OC)ccc12
296 to 300 | CC1(C)CC(=O)C2=C(C1)NC1=C(C(=O)CC(C)(C)C1)C2c1ccc(C(F)(F)F)c(F)c1
187 to 189 | O=C(NC(=O)c1c(F)cccc1F)Nc1cc(Cl)cc(C(F)(F)F)c1F
198 to 200 | CC(=O)NC[C@H]1CN(c2cc(F)c(N3CCC(n4nnc(N5CCN(C#N)CC5)n4)CC3)c(F)c2)C(=O)O1
77 to 80 | CC(=O)Oc1ccc2c(c1)CC=C1C2CCC2(C)C=CCC12 (stereo not given)
140 | CC(=O)OC1CSC(Oc2cccc(-c3ccc(C)cn3)c2)C(OC(C)=O)C1OC(C)=O (stereo not given)
99 to 101 | CCCCCC(CO)n1cnc(NC(=O)c2ccccc2C(=O)O)c1 (stereo not given)
161 to 162 | CCN(CC)CCOc1ccc(-c2oc3ccc(Cl)cc3c2C(=O)c2cc(C)cc(C)c2)cc1
230 to 232 | Cc1nc2ccc(CN(CCO)c3ccc(C(=O)NCc4cccc([N+](=O)[O-])c4)cc3)cc2c(=O)[nH]1
130 to 131 | Cc1c(C)c2c(c(C)c1N)C(c1cccnc1)C(C)(C)O2 (stereo not given)
193 to 194 | O=C1Nc2c(cc(F)c(F)c2F)C1=O
208 to 210 | COc1c(F)c(F)c(N)c2c(=O)c(C(=O)O)cn(Cc3ccccc3)c12
185 | CC(=O)OC1CSC(Oc2cnccc2-c2ccncc2)C(OC(C)=O)C1OC(C)=O (stereo not given)
130 | Cc1cccc(C)c1NC(=O)C(C)N1CCN(CCC2CCOc3ccccc32)CC1 (stereo not given)
55 to 60 | Cc1cc(C)c2c(c1)OCC2=O

melting point [°C] | Structure (SMILES)
214 | Cc1nc(NC(=O)c2cnn3c(C(F)(F)F)cc(-c4ccc(C(F)(F)F)cc4)nc23)sc1S(=O)(=O)N(CCO)CCO
159 | CCOC(=O)C1=C(C)NC(N)=C(C(=O)OCC)C1c1ccccc1[N+](=O)[O-] (stereo not given)
140 to 141 | COc1c(C)c(NC(=O)CC(C)(C)C)c2c(c1C)C(c1ccc(C(C)C)cc1)C(C)(C)O2 (stereo not given)
132 to 133 | CCOc1cc2c(cc1OC(C)=O)CCC1C2CCC2(C)C(OC(C)=O)CCC12 (stereo not given)
163 to 167 | COc1ccc(N2CCc3c(C)nc4c(OC)cccc4c32)c(C)c1
91.6 to 92.3 | COc1nc(Cc2ccccc2[N+](=O)[O-])nc(OC)n1
56 | CCN(CC)C(=O)c1cc(-c2ccccc2)c2occc2c1
> 240 | Cc1cc(C(=O)O)cc2c3ccccc3n(Cc3ccccc3)c12
213 to 216 | CCCc1nc2c(N)nc3cc(OCCN(CCOc4ccc5c(c4)nc(N)c4nc(CCC)sc45)C(N)=O)ccc3c2s1
227 | CCCCc1cc(C(=O)O)ccc1C(N)C(=O)O (stereo not given)
88 to 90 | COc1ccc(N2C(=O)CN(C(C)C)C2=O)c(F)c1
184 to 186 | CCCc1nc2c(N)nc3cccnc3c2n1CC1(O)CCCC1
101 to 102 | N#Cc1ccc(CCCCC(=O)O)cc1
> 250 | COc1cc2nc(C)c3c4cc5c(cc4ccc3c2cc1OC)OCO5
220 to 227 | COc1cc(Nc2c(C#N)cnc3cc4cc(OC)c(OCCN5CCN(C)CC5)cc4cc23)c(Cl)cc1C
58 to 59 | CCCn1nc(-c2ccc(OC)cc2)c2cccc(-c3ccccc3)c21
125 to 127 | CCC(=O)OCc1nc(-c2ccc(OC)c(OC)c2)c2cc(OC)c(OC)cc2c1CC
166 to 168 | Cc1cccc(CSc2nc3cnccc3[nH]2)c1
120 | O=C(c1ccccc1)c1cc([N+](=O)[O-])ccc1NCc1ccccc1
264 to 266 | O=c1[nH]c2ncc(-c3ccn[nH]3)nc2n1CC1CCCCC1
191 to 192 | COc1ccc(C(=O)Nc2cccnc2)cc1NC(=S)Nc1cccc(C(=O)O)c1
148 to 150 | CCSc1cc(C)nc(SCC)c1NC(=O)CCCSc1nc2cccc(C(F)(F)F)c2o1
193 | Cc1ccccc1CN1CCN(C2=NC3(C=CC(=O)C=C3)C(c3ccccc3)=C2)CC1
176 to 178 | COc1ccc(C2(C#N)CCC(NS(C)(=O)=O)CC2)c2c1oc1ccccc12 (stereo not given)

melting point [°C] | Structure (SMILES)
93 to 94 | NC(=O)CCCCCCCCCCC(Cl)(Cl)C(=O)O
62 to 63 | O=S(c1ccccc1-c1ccccc1)C(F)(F)C(F)(F)C(F)(F)C(F)(F)C(F)(F)C(F)(F)C(F)(F)C(F)(F)F (stereo not given)
38 to 40 | COc1ccc(F)c([N+](=O)[O-])c1C
186 | O=S1(=O)CCC(c2ccccc2)(c2ccccc2)[C@@H]2CN(Cc3ccccc3)C[C@@H]21 (racemic)
227 to 229 | CCCCC(=O)c1cc(C(=O)O)c2cc(Cc3ccc(F)cc3)cnc2c1O
85 to 87 | CCCCCCCCCCCCC1=C(O)C(=O)c2ccccc2C1=O
206 | c1ccc(-c2nnc3cc(-c4cccnc4)c(OCc4ccccn4)nn23)cc1
110 to 120 | COc1cc2c(cc1OC)N(C(=O)c1ccc(-c3ccccc3OC)c(C)c1)Cc1ccc(C(=O)N(C)CC(O)C(O)C(O)C(O)CO)n1C2 (stereo not given)
87 to 88 | Cc1nn(-c2cncc(F)c2)cc1I
184 to 186 | O=C(Nc1ccc(F)cc1F)C(=O)c1c2n(c3ccccc13)CCNCC2
168 to 170 | O=C(c1ccc(F)cc1)C1CCN(C(=O)c2ccc([N+](=O)[O-])cc2)CC1
134 to 138 | Cc1nc2c3c(ccn2c1C)C(O)C(O)C(c1ccsc1)N3 (stereo not given)
65 to 67 | CCCCc1c(C)cc(C)cc1O
118 to 120 | CCOC(=O)Cn1c2c(c3c(Cl)ccc(Cl)c31)CCN(C(=O)OC(C)(C)C)CC2
210 | N#CC1=C(c2ccc(Cl)s2)Nc2n[nH]cc2C1c1cccc2nonc12 (stereo not given)
174 to 175 | CCOc1cc(C)ccc1C1CCN(CCCCNC(=O)c2ccc3c(c2)cc(-c2ccc(Cl)cc2)n3C)CC1
124 to 125 | COc1cc(C(C)C)c2c(c1)S(=O)(=O)N(COc1cc(C(F)(F)F)nn1-c1ccc3ccccc3n1)C2=O
188 | N#Cc1ccc(NC2CCN(Cc3cc(F)cc(F)c3)CC2)nn1
49 to 52 | CCOC(=O)CNc1c(C)cccc1[N+](=O)[O-]
172 to 175 | O=C(O)C1CCC(c2ccccc2)n2c(=O)n(CCS)c(=O)n21 (stereo not given)
145 to 146 | O=C(OCCN1CCCC1)c1c[nH]c2ccccc12
> 220 | COc1cc2cc(CO)c(CO)c(-c3ccnc(C4C(=O)CCCC4=O)c3)c2cc1OC
203 | O=C(NC(=O)c1c(F)cccc1F)Nc1cc(Br)c(Br)cc1C(F)(F)F
149 to 150 | COC(=O)c1cccc2nc(OC)n(Cc3ccc(-c4ccccc4C#N)cc3)c12

melting point [°C] | Structure (SMILES)
221 to 223 | CCOCc1nc2c(N)nc3ccccc3c2n1CC1(C(N)=O)CCCCC1
232 to 234 | CCN1CCc2ccc(Nc3ncc(Cl)c(NC4CCCCNC4=O)n3)cc2CC1 (stereo not given)
250 to 255 | O=C(NC12CC3CC(CC(C3)C1)C2)c1cc(O)c(O)cc1[N+](=O)[O-]
137 to 138 | CCOC(=O)c1ccc(C#Cc2ccc3c(c2)C(C)(C)CCC3(C)C)cc1
190 to 192 | Cc1cccc([N+](=O)[O-])c1C=NO
113 to 114 | O=S1(=O)CCON=C1c1ccc(Cl)s1
204 | COc1cc(NC(N)=O)c2c(c1)OC(C)C2 (stereo not given)
268 to 269 | O=C(O)c1ccc(-c2ccc3cc(CCCO)c(C45CC6CC(CC(C6)C4)C5)cc3c2)cc1
> 100 | Nc1nc(NC2CC2)c2sc(=O)n(C3OC(CO)C(O)C3O)c2n1 (stereo not given)
90 to 92 | COC(=O)c1ccc(OCCCOc2ccccc2)cc1O
130 | Cc1cccc(C(=O)Nc2ccc(N3CCN(Cc4ccc[nH]4)CC3)nc2)c1-c1ccc(C(C)C)cc1
193 to 195 | N#CC(N=Nc1cc(S(=O)(=O)O)ccc1OC(=O)c1ccccc1)=C(OC(=O)c1ccccc1)c1ccccc1
271 to 272 | CC(=O)Nc1ccc(C=Cc2cc(=O)cc(-c3ccccc3)o2)cc1
103 to 112 | COc1cc(C2CCN(CC(N)=O)CC2)ccc1Nc1ncc2ccc(-c3ccccc3N(C)S(C)(=O)=O)n2n1
147 to 148 | Cc1ncn(-c2cc(F)ccc2CNC(=O)c2nc3n(c(=O)c2OCc2ccccc2)CCN3c2ccccc2)n1
216 to 218 | O=S1(=O)NCN(C2CCCCCC2)c2ccc(Cl)cc21
223 | O=C(O)C=Cc1nn(-c2ccccc2)c2c1CCC2
90 to 91 | CC(C)(C)OC(=O)C=C(c1ccc(C#N)s1)n1ccnc1
62 to 63 | CCCCCCCCCCCCCCCCCCNC(=O)SCC(CO)OC (stereo not given)
107 to 111 | COc1ccc(CC2CNC(=O)N2)cc1OC1CCCC1 (stereo not given)
73 to 76 | CC(O)CC#Cc1ccc(C(CC2CCCC2)C(=O)O)cc1 (stereo not given)
275 to 282 | Cc1ccnc(Nc2nc(-c3ccc(OC(F)(F)F)cc3)cs2)c1

Structure (SMILES) | melting point [°C]
Cc1ccc2c3c(ccc2n1)OCC(CN1CC=C(c2cc4ccccc4s2)CC1)O3 (stereo not given) | 174 to 176
